{
  "source": "patent US20040024068A1",
  "about": "“Antimicrobial compounds” (priority 1998, published 2004)",
  "key": {"[1]": {"tested_on": "E. coli strain AGT11 versus isogenic parent AG100", "assay": "Isoniazid resistance of E. coli in the presence of 250 μM hydrogen peroxide", "assay_type": "cell-based, Escherichia coli", "details": "triclosan-resistant strain AGT11; 250 μM hydrogen peroxide present"}, "[2]": {"tested_on": "Mycobacterium smegmatis mc^2155 and InhA mutants", "assay": "MIC on agar plates by 2-fold serial dilutions, M. smegmatis strains", "assay_type": "cell-based", "details": "for MIC: Mycolicibacterium smegmatis"}, "[3]": {"tested_on": "M. smegmatis", "details": "cited from earlier work"}, "[4]": {"tested_on": "M. tuberculosis", "details": "cited from earlier work"}, "[5]": {"tested_on": "E. coli K-12 derivatives", "assay": "microbe, parasite or virus in culture", "assay_type": "cell-based, Escherichia coli", "details": "for MIC: Escherichia coli"}, "[6]": {"tested_on": "hypersusceptible host strain AG100A bearing pBR322-derived plasmids", "assay": "Triclosan MIC encoded by plasmid clones in hypersusceptible host AG100A", "assay_type": "cell-based", "details": "Escherichia coli"}, "[7]": {"tested_on": "clinical strains of E. coli", "assay": "Triclosan MIC of clinical strains from blood samples", "assay_type": "cell-based", "details": "Escherichia coli"}, "[8]": {"tested_on": "E. coli K12 strain AG100 and triclosan resistant mutants", "assay": "Triclosan MIC by agar serial dilution plates (2.0 fold steps), AG100 and mutants selected on triclosan", "assay_type": "cell-based, Escherichia coli", "details": "for MIC: agar dilution plates"}, "[9]": {"tested_on": "E. coli strains AG100, AG100A, AGT11, AGT11K", "assay": "Inhibition of growth rate in broth (liquid) culture", "assay_type": "cell-based, Escherichia coli", "details": "for IC50: Escherichia coli, 1 h, 1 h after addition"}, "[10]": {"tested_on": "E. coli strains AG100, AG100A, AGT11, AGT11K", "assay": "Cell lysis in broth (liquid) culture (loss of absorbance with loss of viable cfu)", "assay_type": "cell-based, Escherichia coli"}},
  "note": "Where two headings read alike, the source gives them in different places.",
  "data": [
    {"smiles": "NNC(=O)c1ccncc1", "note": "[isoniazid]", "values": [
      {"measurement": "isoniazid resistance relative to isogenic parent AG100", "setting": "[1]", "value": "several times"},
      {"measurement": "MIC", "setting": "[2]; MC^2155", "value": 7, "unit": "µg/mL"},
      {"measurement": "relative MIC (S.D.) isoniazid (7H9)", "setting": "[2]; strain mc^2155/pMD31::inhA^+", "value": ">64"},
      {"measurement": "relative MIC (S.D.) isoniazid (7H9)", "setting": "[2]; strain mc^2155 wild type", "value": 1.0}
    ]},
    {"smiles": "Oc1cc(Cl)ccc1Oc1ccc(Cl)cc1Cl", "note": "[triclosan, 2,4,4′-trichlor-2′-hydroxydiphenyl ether]", "values": [
      {"measurement": "susceptibility to triclosan", "setting": "[3]", "value": "susceptible"},
      {"measurement": "susceptibility to triclosan", "setting": "[4]", "value": "not sensitive"},
      {"measurement": "MIC", "setting": "[5]; AG100, span of Tables 3-5, read-out: MIC (determined on agar)", "value": "0.17 to 0.28", "unit": "µg/mL"},
      {"measurement": "MIC", "setting": "[5]; strain AG100, mean of two to five determinations, read-out: MIC", "value": 0.17, "unit": "µg/mL"},
      {"measurement": "MIC", "setting": "[5]; strain GC4488, read-out: MIC", "value": 0.08, "unit": "µg/mL"},
      {"measurement": "MIC", "setting": "[5]; strain HH180, read-out: MIC", "value": 0.07, "unit": "µg/mL"},
      {"measurement": "change of triclosan MIC by overexpression of acrAB", "setting": "[5]; strain AG100B (mutation in acrR) vs AG100", "value": "doubled"},
      {"measurement": "MIC", "setting": "[6]; clones pLYT1 through pLYT10 (AGT11 library) in hypersensitive strain AG100A", "value": "~4", "unit": "µg/mL"},
      {"measurement": "MIC", "setting": "[6]; vector alone (pBR322) in AG100A", "value": "0.005 to 0.02", "unit": "µg/mL"},
      {"measurement": "MIC", "setting": "[7]; read-out: mean triclosan MIC, multiply resistant clinical strains E3, E19, HO99 overexpressing marA or soxS", "value": 0.33, "unit": "µg/mL"},
      {"measurement": "MIC", "setting": "[7]; read-out: mean triclosan MIC, remaining 26 multiply resistant clinical strains overexpressing neither marA or soxS", "value": 0.13, "unit": "µg/mL"},
      {"measurement": "MIC", "setting": "[7]; read-out: mean triclosan MIC, 14 of 15 antibiotic-susceptible clinical strains (Series S)", "value": 0.09, "unit": "µg/mL"},
      {"measurement": "MIC", "setting": "[7]; read-out: triclosan MIC, multiply resistant clinical strain E10, overexpressing neither marA nor soxS", "value": 0.38, "unit": "µg/mL"},
      {"measurement": "MIC", "setting": "[7]; read-out: triclosan MIC, multiply resistant clinical strain HO 17, overexpressing marA", "value": 0.15, "unit": "µg/mL"},
      {"measurement": "MIC", "setting": "[7]; read-out: triclosan MIC, susceptible clinical strain S20, overexpressing marA", "value": 0.27, "unit": "µg/mL"},
      {"measurement": "MIC", "setting": "[8]; Escherichia coli, strain AG100 (wild-type)", "value": 0.28, "unit": "µg/mL"},
      {"measurement": "MIC", "setting": "[8]; Escherichia coli, strain AG100A (AG100 ΔacrAB::kan)", "value": 0.018, "unit": "µg/mL"},
      {"measurement": "MIC", "setting": "[8]; Escherichia coli, strain AGT11 (AG100 fabI G93V)", "value": 41, "unit": "µg/mL"},
      {"measurement": "MIC", "setting": "[8]; Escherichia coli, strain AGT11K (AGT11 ΔacrAB::kan)", "value": "2 to 4", "unit": "µg/mL"},
      {"measurement": "MIC of strain divided by MIC of AG1000", "setting": "[8]; strain AG100 (fabI none), inactivated locus acrAB", "value": 0.063},
      {"measurement": "MIC of strain divided by MIC of AG1000", "setting": "[8]; strain AG100 (fabI none), inactivated locus mar", "value": 0.71},
      {"measurement": "MIC of strain divided by MIC of AG1000", "setting": "[8]; strain AG100 (fabI none), inactivated locus none", "value": 1},
      {"measurement": "MIC", "setting": "[8]; strain AG100 (wild-type)", "value": "0.28 ± 0.04", "unit": "µg/mL"},
      {"measurement": "MIC of strain divided by MIC of AG1000", "setting": "[8]; strain AGT7 (fabI mutation NI), inactivated locus none", "value": 1.7},
      {"measurement": "MIC of strain divided by MIC of AG1000", "setting": "[8]; strain AGT7, inactivated locus acrAB", "value": 0.071},
      {"measurement": "MIC of strain divided by MIC of AG1000", "setting": "[8]; strain AGT7, inactivated locus mar", "value": 1.7},
      {"measurement": "MIC of strain divided by MIC of AG1000", "setting": "[8]; strain AGT8 (fabI mutation NI), inactivated locus none", "value": 4},
      {"measurement": "MIC of strain divided by MIC of AG1000", "setting": "[8]; strain AGT8, inactivated locus acrAB", "value": 0.25},
      {"measurement": "MIC of strain divided by MIC of AG1000", "setting": "[8]; strain AGT8, inactivated locus mar", "value": 3.4},
      {"measurement": "MIC of strain divided by MIC of AG1000", "setting": "[8]; strain AGT9 (fabI mutation NI), inactivated locus none", "value": 2.3},
      {"measurement": "MIC of strain divided by MIC of AG1000", "setting": "[8]; strain AGT9, inactivated locus acrAB", "value": 0.32},
      {"measurement": "MIC of strain divided by MIC of AG1000", "setting": "[8]; strain AGT9, inactivated locus mar", "value": 2.3},
      {"measurement": "MIC", "setting": "[8]; strain AGT11K (AGT11 ΔacrAB::kan)", "value": 3.2, "unit": "µg/mL"},
      {"measurement": "MIC of strain divided by MIC of AG1000", "setting": "[8]; strain AGT21 (fabI G93V), inactivated locus acrAB", "value": 11.4},
      {"measurement": "MIC of strain divided by MIC of AG1000", "setting": "[8]; strain AGT21 (fabI G93V), inactivated locus mar", "value": 145},
      {"measurement": "MIC of strain divided by MIC of AG1000", "setting": "[8]; strain AGT21 (fabI G93V), inactivated locus none", "value": 145},
      {"measurement": "MIC of strain divided by MIC of AG1000", "setting": "[8]; strain AGT23 (fabI M159T), inactivated locus acrAB", "value": 1.7},
      {"measurement": "MIC of strain divided by MIC of AG1000", "setting": "[8]; strain AGT23 (fabI M159T), inactivated locus none", "value": 11.4},
      {"measurement": "MIC of strain divided by MIC of AG1000", "setting": "[8]; strain AGT25 (fabI F203L), inactivated locus acrAB", "value": 0.57},
      {"measurement": "MIC of strain divided by MIC of AG1000", "setting": "[8]; strain AGT25 (fabI F203L), inactivated locus none", "value": 4.6},
      {"measurement": "IC50", "setting": "[9]; read-out: Concentration of triclosan which inhibited growth rate 50%, strain AG100 (wild type), OD530", "value": "~0.15", "unit": "µg/mL"},
      {"measurement": "IC50", "setting": "[9]; read-out: Concentration of triclosan which inhibited growth rate 50%, strain AG100A (ΔacrAB)", "value": "~0.02", "unit": "µg/mL"},
      {"measurement": "Concentration of triclosan which inhibited growth rate 90%", "setting": "[9]; strain AG100 (wild type)", "value": 0.6, "unit": "µg/mL"},
      {"measurement": "Concentration of triclosan which inhibited growth rate 90%", "setting": "[9]; strain AG100A (ΔacrAB)", "value": 0.05, "unit": "µg/mL"},
      {"measurement": "Concentration of triclosan which caused lysis", "setting": "[10]; strain AG100 (wild type), within 2 h", "value": 8, "unit": "µg/mL"},
      {"measurement": "amount of triclosan required to give lysis", "setting": "[10]; strains AG100, AG100A and AGT11K together", "value": "2 to 8", "unit": "µg/mL"},
      {"measurement": "MIC", "setting": "[2]; MC^2155, mc^2155, triclosan in 7H9", "value": 14, "unit": "µg/mL"},
      {"measurement": "MIC", "setting": "[2]; MC^2155, mc^2155, triclosan in LB, mean (+/− S.D.) of 4-5 experiments", "value": 0.61, "unit": "µg/mL"}
    ]}
  ]
}
